Measurements reported in PubChem BioAssay AID2060488 (Molecular Pharmacology Branch, DTP, NCI, 2025).

Test system: 966289-007-R4-J1-PDC complex spheroid viability
Assay: Anticancer human tumor 966289-007-R4-J1-PDC patient-derived pancreatic adenocarcinoma cell line growth inhibition [GQUAD]
Details: for IC50: curve of first compound; for viability, T/C: stronger effect = lower value
Procedure, shortened: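 Multi-cell-type spheroids of tumor cells with HUVEC and mesenchymal stem cells, treated with drug combinations. Concentrations descend in half-log steps from near clinical Cmax, or from 10 microM where Cmax is unknown; viability read-out.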

[1] = second compound 0.0316 µM, first compound 0.0316 µM
[2] = second compound 0.0316 µM, first compound 0.1 µM
[3] = second compound 0.0316 µM, first compound 0.316 µM
[4] = second compound 0.0316 µM, first compound 1 µM
[5] = second compound 0.0316 µM, first compound 3.16 µM
[6] = second compound 0.0316 µM, first compound 10 µM
[7] = second compound 0.1 µM, first compound 0.0316 µM
[8] = second compound 0.1 µM, first compound 0.1 µM
[9] = second compound 0.1 µM, first compound 0.316 µM
[10] = second compound 0.1 µM, first compound 1 µM
[11] = second compound 0.1 µM, first compound 3.16 µM
[12] = second compound 0.1 µM, first compound 10 µM
[13] = second compound 0.316 µM, first compound 0.0316 µM
[14] = second compound 0.316 µM, first compound 0.1 µM
[15] = second compound 0.316 µM, first compound 0.316 µM
[16] = second compound 0.316 µM, first compound 1 µM
[17] = second compound 0.316 µM, first compound 3.16 µM
[18] = second compound 0.316 µM, first compound 10 µM
[19] = second compound 1 µM, first compound 0.0316 µM
[20] = second compound 1 µM, first compound 0.1 µM
[21] = second compound 1 µM, first compound 0.316 µM
[22] = second compound 1 µM, first compound 1 µM
[23] = second compound 1 µM, first compound 3.16 µM
[24] = second compound 1 µM, first compound 10 µM
[25] = second compound 3.16 µM, first compound 0.0316 µM
[26] = second compound 3.16 µM, first compound 0.1 µM
[27] = second compound 3.16 µM, first compound 0.316 µM
[28] = second compound 3.16 µM, first compound 1 µM
[29] = second compound 3.16 µM, first compound 3.16 µM
[30] = second compound 3.16 µM, first compound 10 µM
[31] = second compound 10 µM, first compound 0.0316 µM
[32] = second compound 10 µM, first compound 0.1 µM
[33] = second compound 10 µM, first compound 0.316 µM
[34] = second compound 10 µM, first compound 1 µM
[35] = second compound 10 µM, first compound 3.16 µM
[36] = second compound 10 µM, first compound 10 µM
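Also: spheroids exposed to the agents for seven days before readout.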
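For viability, T/C in this document: percent viability relative to DMSO vehicle control wells taken as 100%.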

Compound `COc1cccc2c1C(=O)c1c(O)c3c(c(O)c1C2=O)CC(O)(C(=O)CO)CC3OC1CC(N)C(O)C(C)O1` (stereo unspecified) + Cc1cnc(CNC(=O)c2c(=O)c3ccc(N4CCCN(C)CC4)nc3n3c2sc2ccccc23)cn1 has an IC50 (second compound 0.0316 µM) of under 0.0316 µM, an IC50 (second compound 0.1 µM) of under 0.0316 µM and an IC50 (second compound 0.316 µM) of under 0.0316 µM. For the same compound, the IC50 (second compound 1 µM) was under 0.0316 µM, the IC50 (second compound 3.16 µM) was under 0.0316 µM and the IC50 (second compound 10 µM) was under 0.0316 µM. The viability, T/C [1] was 43.6%, the viability, T/C [2] was 6.62% and the viability, T/C [3] was 2.17%. It also gave a viability, T/C [4] of 0.54%, a viability, T/C [5] of 0.2% and a viability, T/C [6] of 0.39%. For the same compound, the viability, T/C [7] was 14.1%, the viability, T/C [8] was 7.19% and the viability, T/C [9] was 2.36%. The viability, T/C [10] was 0.41%, the viability, T/C [11] was 0.24% and the viability, T/C [12] was 0.54%. It also gave a viability, T/C [13] of 8.14%, a viability, T/C [14] of 4.76% and a viability, T/C [15] of 1.77%. It also gave a viability, T/C [16] of 0.41%, a viability, T/C [17] of 0.17% and a viability, T/C [18] of 0.26%. It also gave a viability, T/C [19] of 4.98%, a viability, T/C [20] of 3.35% and a viability, T/C [21] of 1.44%. For the same compound, the viability, T/C [22] was 0.09%, the viability, T/C [23] was 0.13% and the viability, T/C [24] was 0.32%. The viability, T/C [25] was 3.68%, the viability, T/C [26] was 1.92% and the viability, T/C [27] was 0.11%. For the same compound, the viability, T/C [28] was 0.05%, the viability, T/C [29] was 0.1% and the viability, T/C [30] was 0.1%. The viability, T/C [31] was 0.03%, the viability, T/C [32] was 0.08% and the viability, T/C [33] was 0.1%. For the same compound, the viability, T/C [34] was 0.07%, the viability, T/C [35] was 0.16% and the viability, T/C [36] was 0.24%.
`COc1ccc([C@@H](O)c2cc(-c3ncnc4cc(N5CCOCC5)ccc34)c(F)cc2Cl)nn1` + Cc1cnc(CNC(=O)c2c(=O)c3ccc(N4CCCN(C)CC4)nc3n3c2sc2ccccc23)cn1 showed an IC50 (second compound 0.0316 µM) of 0.826 µM, an IC50 (second compound 0.1 µM) of under 0.0316 µM and an IC50 (second compound 0.316 µM) of under 0.0316 µM. The IC50 (second compound 1 µM) was under 0.0316 µM, the IC50 (second compound 3.16 µM) was under 0.0316 µM and the IC50 (second compound 10 µM) was under 0.0316 µM. It also gave a viability, T/C [1] of 119%, a viability, T/C [2] of 109% and a viability, T/C [3] of 107%. The viability, T/C [4] was 38.6%, the viability, T/C [5] was 36% and the viability, T/C [6] was 26%. The viability, T/C [7] was 47.7%, the viability, T/C [8] was 37.2% and the viability, T/C [9] was 21.7%. It also gave a viability, T/C [10] of 11.2%, a viability, T/C [11] of 12.2% and a viability, T/C [12] of 13.2%. It also gave a viability, T/C [13] of 14.1%, a viability, T/C [14] of 15% and a viability, T/C [15] of 10.7%. The viability, T/C [16] was 9.67%, the viability, T/C [17] was 12.2% and the viability, T/C [18] was 10.4%. For the same compound, the viability, T/C [19] was 7.16%, the viability, T/C [20] was 7.76% and the viability, T/C [21] was 6.22%. For the same compound, the viability, T/C [22] was 5.28%, the viability, T/C [23] was 7.22% and the viability, T/C [24] was 6.81%. It also gave a viability, T/C [25] of 5.73%, a viability, T/C [26] of 5.42% and a viability, T/C [27] of 4.82%. The viability, T/C [28] was 4.3%, the viability, T/C [29] was 6.69% and the viability, T/C [30] was 6.78%. It also gave a viability, T/C [31] of 0.11%, a viability, T/C [32] of 0.13% and a viability, T/C [33] of 0.3%. For the same compound, the viability, T/C [34] was 0.15%, the viability, T/C [35] was 0.42% and the viability, T/C [36] was 0.15%.
`Cc1cccc(N(C)C(=O)C2C(O)CCN2c2nc(C)cc(C(F)(F)F)c2C#N)c1` (stereo unspecified) + Cc1[nH]c2ccc(F)cc2c1-c1nc2c3cccnc3c3ncccc3c2[nH]1 was tested, and the IC50 (second compound 0.0316 µM) was over 10 µM, the IC50 (second compound 0.1 µM) was over 10 µM and the IC50 (second compound 0.316 µM) was over 10 µM. For the same compound, the IC50 (second compound 1 µM) was over 10 µM, the IC50 (second compound 3.16 µM) was over 10 µM and the IC50 (second compound 10 µM) was over 10 µM. The viability, T/C [1] was 109%, the viability, T/C [2] was 90.5% and the viability, T/C [3] was 108%. For the same compound, the viability, T/C [4] was 90.6%, the viability, T/C [5] was 106% and the viability, T/C [6] was 104%. The viability, T/C [7] was 109%, the viability, T/C [8] was 98.6% and the viability, T/C [9] was 97.2%. For the same compound, the viability, T/C [10] was 101%, the viability, T/C [11] was 106% and the viability, T/C [12] was 103%. The viability, T/C [13] was 97.6%, the viability, T/C [14] was 104% and the viability, T/C [15] was 98.1%. The viability, T/C [16] was 104%, the viability, T/C [17] was 99.7% and the viability, T/C [18] was 106%. The viability, T/C [19] was 102%, the viability, T/C [20] was 96.8% and the viability, T/C [21] was 98.7%. The viability, T/C [22] was 106%, the viability, T/C [23] was 97.2% and the viability, T/C [24] was 110%. The viability, T/C [25] was 104%, the viability, T/C [26] was 104% and the viability, T/C [27] was 110%. It also gave a viability, T/C [28] of 107%, a viability, T/C [29] of 113% and a viability, T/C [30] of 114%. For the same compound, the viability, T/C [31] was 107%, the viability, T/C [32] was 102% and the viability, T/C [33] was 110%. It also gave a viability, T/C [34] of 104%, a viability, T/C [35] of 103% and a viability, T/C [36] of 113%.
